From ChEMBL document CHEMBL4813933, “Discovery of Thanafactin A, a Linear, Proline-Containing Octalipopeptide from Pseudomonas sp. SH-C52, Motivated by Genome Mining” (J Nat Prod, 2021)
Calls of active or inactive are those of the source. The calls are words filed in the database; no cut-off is given here.

How the values were obtained:
Staphylococcus aureus = experiment: Inhibition of quorum sensing system in Staphylococcus aureus PC322 assessed as reduction in swarming motility at 1 mg/ml measured after 1 hr
[1] = system: Chromobacterium violaceum; experiment: Inhibition of quorum sensing system in Chromobacterium violaceum CV026 assessed as reduction in swarming motility at 1 mg/ml measured after 1 hr
[2] = target: T1, Cathepsin K (Homo sapiens) (UniProt P43235); experiment: Inhibition of human cathepsin K at 10 uM using Z-Leu-Arg-AMC as substrate incubated for 60 mins by fluorometric assay
T1 sequence (whole entry): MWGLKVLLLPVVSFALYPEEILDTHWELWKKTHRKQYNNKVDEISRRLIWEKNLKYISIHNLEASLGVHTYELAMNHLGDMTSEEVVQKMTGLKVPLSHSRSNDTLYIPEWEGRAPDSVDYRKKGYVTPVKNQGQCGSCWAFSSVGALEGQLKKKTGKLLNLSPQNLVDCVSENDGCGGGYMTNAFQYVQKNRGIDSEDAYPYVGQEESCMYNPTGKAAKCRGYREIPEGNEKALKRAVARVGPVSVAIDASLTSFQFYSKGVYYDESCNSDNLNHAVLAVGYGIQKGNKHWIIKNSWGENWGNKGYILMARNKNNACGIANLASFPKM

inhibition (Staphylococcus aureus): inactive
inhibition [1]: inactive
inhibition [2]: inactive
Compound: CCCCCCC[C@@H](O)CC(=O)N[C@@H](C(=O)N[C@H](C)C(=O)N[C@H](CCC(N)=O)C(=O)N[C@@H](C)C(=O)N[C@@H](C(=O)N[C@@H](C)C(=O)N1CCC[C@H]1C(=O)N[C@H](C(=O)O)[C@@H](C)O)C(C)C)C(C)C
